Here are results for 5 molecules from patent US6720346B2, “Thiazole benzamide derivatives and pharmaceutical compositions for inhibiting cell proliferation” (Agouron Pharmaceuticals, Inc., priority 2001, dated 2004).

Structures can show the parent of a compound that is named as a salt.

One may read the inhibition as the share of the control response that was lost under treatment.

Common to all, as to type: biochemical
One assay addresses T1, CDK2/cyclin A (Homo sapiens, UniProt P24941).
T1 construct: made in house; host or cells: CDK2: insect cells (baculovirus); cyclin A: E. coli
Briefly: Inhibition of CDK2/cyclin A retinoblastoma kinase activity (Ki; % inhibition). Conditions: apparent Ki, CDK2/cyclin A, Rb substrate. In short, it runs like this: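 Radiometric filter assay of CDK2/proteolyzed cyclin A (baculovirus-expressed human CDK2, 10 or 19 nM) phosphorylating an Rb fragment with 25 μM [³²P/³³P]ATP in pH 7.4 HEPES, 2% DMSO, at 30 °C for 60 or 75 min under initial-rate conditions. Library compounds screened at 30 nM for % inhibition; apparent Ki from concentration series fit to competitive or tight-binding inhibition equations.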

In the next assay the target is T2, human CDK4/cyclin D3 (Homo sapiens, UniProt P11802).
T2 construct: made in house; host or cells: insect cells co-infected with baculovirus vectors
T2 sequence (P11802 whole entry): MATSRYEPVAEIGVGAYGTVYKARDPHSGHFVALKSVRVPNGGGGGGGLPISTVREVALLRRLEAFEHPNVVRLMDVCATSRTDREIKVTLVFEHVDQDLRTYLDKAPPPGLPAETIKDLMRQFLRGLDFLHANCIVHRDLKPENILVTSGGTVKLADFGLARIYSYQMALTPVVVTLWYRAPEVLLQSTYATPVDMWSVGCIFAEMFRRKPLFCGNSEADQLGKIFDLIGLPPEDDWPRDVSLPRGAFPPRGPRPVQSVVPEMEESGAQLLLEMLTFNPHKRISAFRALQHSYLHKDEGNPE
T2 sequence (P30281 1-264 partner limits assumed): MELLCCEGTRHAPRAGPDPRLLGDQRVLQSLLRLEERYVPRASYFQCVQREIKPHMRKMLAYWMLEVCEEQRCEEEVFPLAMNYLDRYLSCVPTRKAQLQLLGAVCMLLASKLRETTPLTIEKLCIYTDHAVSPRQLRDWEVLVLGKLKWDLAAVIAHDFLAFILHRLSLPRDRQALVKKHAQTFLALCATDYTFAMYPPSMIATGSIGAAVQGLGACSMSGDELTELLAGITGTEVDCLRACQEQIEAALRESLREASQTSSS
Briefly: Inhibition of CDK4/cyclin D retinoblastoma kinase activity (Ki; % inhibition). The conditions noted are these: apparent Ki, CDK4/cyclin D3, Rb substrate. An outline of the steps: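 Insect-cell-expressed CDK4 with truncated cyclin D3 (1-264), 5 nM, phosphorylating His-tagged Rb fragment (386-928) with 25 μM [32/33P]ATP at pH 7.4, 30 °C, 20 min (60 min for tight binders). Filter capture, phosphorimager read; % inhibition at 30 nM compound, Ki from competitive or tight-binding fits.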

Assay [1] concerns the target T3, Phosphorylated FGF receptor kinase (FGFR1 cytosolic domain) (Homo sapiens, UniProt P11362, C488A/C584S/L457V).
T3 construct: FGFR1 tyrosine kinase (amino acids 456-766); made in house; host or cells: Sf9 insect cells (baculovirus)
Briefly: Inhibition of phosphorylated FGF receptor tyrosine kinase activity (coupled spectrophotometric assay). Conditions: read-out: P-FGF % Inhibition at 1 μM. As to the method:
Cloning, expression and purification of the cytosolic domain of FGFR1 tyrosine kinase (amino acids 456-766) containing three amino acid substitutions (L457V, C488A, and C584S) were conducted as previously described (Mohammadi, M., Schiessinger, J., & Hubbard, S. R. Cell, 86, (1996) 577-587). This domain was expressed in Sf9 insect cells using a baculovirus expression vector, and protein was purified using conventional techniques. The LCK tyrosine kinase was expressed in insect cells as an N-terminal deletion starting from amino acid 223 to the end of the protein at amino acid 509. The N-terminus of the protein also had two amino acid substitutions, P223M and C224D. Kinases were purified using conventional chromatographic methods.
Tyrosine kinase activity was measured using a coupled, continuous spectrophotometric assay, in which production of phosphorylated poly(Glu,Tyr; 4:1) substrate and ADP is coupled to the pyruvate kinase-catalyzed transfer of a phosphate from phosphoenolpyruvate to ADP, with generation of pyruvate and regeneration of ATP. Pyruvate production is in turn coupled to the lactate dehydrogenase-catalyzed reduction of pyruvate to form lactate, with concomitant conversion of NADH to NAD^+. Loss of NADH is monitored by measuring absorbance at 340 nm (see e.g., Technikova-Dobrova et al., “Spectrophotometric Determination of Functional Characteristics of Protein Kinases with Coupled Enzymatic Assay,” FEBS Letters, 292 (1991), pp. 69-72). Enzyme activity was measured in the presence of 200 mM HEPES (pH 7.5), 2 mM phosphoenolpyruvate, 0.3 mM NADH, 20 mM MgCl2, 100 μM ATP, 5 mM DTT, 5.1 or 25 mM poly (Glu,Tyr) 4:1 for P-FGF or P-LCK assays, respectively, and 15 units/mL each of pyruvate kinase and lactate dehydrogenase. Phosphorylated FGF receptor kinase was present at 100 nM and phosphorylated LCK kinase was present at 50 nM. Assays were performed under initial rate conditions at 37° C., and rates were corrected for any background rate measured in the absence of enzyme. Percent inhibition was calculated relative to control enzyme assayed in the presence of 2% (v/v) DMSO.

T3 sequence (P11362 456-766 L457V/C488A/C584S): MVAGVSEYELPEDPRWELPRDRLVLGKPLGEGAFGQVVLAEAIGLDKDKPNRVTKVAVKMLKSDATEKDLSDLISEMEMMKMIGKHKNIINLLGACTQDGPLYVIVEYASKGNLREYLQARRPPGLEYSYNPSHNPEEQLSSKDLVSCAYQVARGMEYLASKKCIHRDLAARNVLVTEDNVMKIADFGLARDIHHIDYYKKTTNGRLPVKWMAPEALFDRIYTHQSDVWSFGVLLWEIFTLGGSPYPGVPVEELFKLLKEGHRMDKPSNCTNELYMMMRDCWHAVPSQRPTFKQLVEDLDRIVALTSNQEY

Regarding `Nc1nc(Nc2ccc(C(=O)NCCc3ccc(O)cc3)cc2)sc1C(=O)c1c(F)cccc1F` [Example A14, 4-[4-Amino-5-(2,6-difluoro-benzoyl)-thiazol-2-ylamino]-N-[2-(4-hydroxy-phenyl)-ethyl]-benzamide], the Ki was 60 nM at CDK2/cyclin A and 14 nM on human CDK4/cyclin D3. Besides, the inhibition at 1 µM in assay [1] is 0%.

`Nc1nc(Nc2ccc(C(=O)NCCN3CCCCC3)cc2)sc1C(=O)c1c(F)cccc1F` [Example A15, 4-[4-Amino-5-(2,6-difluoro-benzoyl)-thiazol-2-ylamino]-N-(2-piperidin-1-yl-ethyl)-benzamide]: the figures for the Ki at CDK2/cyclin A and on human CDK4/cyclin D3 were 150 nM and 7 nM, respectively. Further, in assay [1], the inhibition at 1 µM was 0%.

In the case of `CC(CN(C)C)NC(=O)c1ccc(Nc2nc(N)c(C(=O)c3c(F)cccc3F)s2)cc1` (stereo not drawn) [Example A20, 4-[4-Amino-5-(2,6-difluoro-benzoyl)-thiazol-2-ylamino]-N-(2-dimethylamino-1RS-methyl-ethyl)-benzamide Hydrochloride Salt], the Ki on CDK2/cyclin A came to 162 nM; at human CDK4/cyclin D3, 32 nM. Further, the inhibition at 1 µM in assay [1] amounted to 0%.

Consider `Nc1nc(Nc2ccc(C(=O)Nc3ccc(N4CCOCC4)cc3)cc2)sc1C(=O)c1c(F)cccc1F` [Example A21], for which the Ki on CDK2/cyclin A and on human CDK4/cyclin D3 was 105 nM throughout. Moreover, the inhibition at 1 µM in assay [1] is 0%.

On to `CN1CCC[C@H]1CNC(=O)c1ccc(Nc2nc(N)c(C(=O)c3c(F)cccc3F)s2)cc1` [Example A31, 4-[4-Amino-5-(2,6-difluoro-benzoyl)-thiazol-2-ylamino]-N-(1-methyl-pyrrolidin-2S-yl-methyl)-benzamide Dihydrochloride], for which the Ki turned out to be 49 nM on CDK2/cyclin A and 7 nM on human CDK4/cyclin D3. In addition, the inhibition at 1 µM in assay [1] was 0%.
